From patent US7118895B2, “Process for producing aglycon by using diglycosidase and flavor-improved food containing the aglycon and converting agent to be used in the process” (Amano Enzyme Inc., priority 2000, dated 2006)

System: Crude diglycosidase
Assay: Examination of temperature in the conversion into isoflavone aglycons by diglycosidase using soybean materials
Assay type: biochemical, Penicillium multicolor IAM7153
Parameters: Decomposition efficiency of glycitin family in roasted soy flour / Decomposition efficiency of daidzin family in roasted soy flour / Decomposition efficiency of genistin family in soymilk / Decomposition efficiency of daidzin family in soymilk / Decomposition efficiency of glycitin family in defatted soybean / Decomposition efficiency of daidzin family in defatted soybean: concentration or dose not given beside the values
Protocol: Into 400 μL of 20 mM acetate buffer of pH 4.0 was suspended 50 mg of each of various soybean materials (roasted soy flour (manufactured by Fuji Shokuryo K.K.), soymilk (manufactured by Gitoh Shokuhin K.K.), defatted soybean (manufactured by Fuji Seiyu K.K.), concentrated soybean protein (manufactured by Fuji Seiyu K.K.)), whereby a substrate solution was prepared. Crude diglycosidase was diluted with 20 mM acetate buffer of pH 4.0 to be the glycosidase activity of 1.88 AU/mL. Fifty μL of the enzyme solution was mixed with the substrate solution and the whole was reacted at 80, 65, 55, 45, 37, or 30° C. at the total volume of 500 μL. To the reaction mixture was added 700 μL of ethanol after 0, 1, 3, and 6 hours of the reaction. After stirring and ultrasonication, the mixture was subjected to centrifugal separation at 15,000 rpm and 4° C. for 10 minutes. The supernatant was filtered through a filter and the existence of isoflavone glycosides and aglycon isoflavones contained in the reaction mixture was detected by HLPC.

[1] = 30 °C, heat treatment of enzyme: no, 0 h
[2] = 30 °C, heat treatment of enzyme: no, 1 h
[3] = 30 °C, heat treatment of enzyme: no, 3 h
[4] = 30 °C, heat treatment of enzyme: no, 6 h
[5] = 30 °C, heat treatment of enzyme: yes, 6 h
[6] = 45 °C, heat treatment of enzyme: no, 0 h
[7] = 45 °C, heat treatment of enzyme: no, 1 h
[8] = 45 °C, heat treatment of enzyme: no, 3 h
[9] = 45 °C, heat treatment of enzyme: no, 6 h
[10] = 45 °C, heat treatment of enzyme: yes, 6 h
[11] = 55 °C, heat treatment of enzyme: no, 0 h
[12] = 55 °C, heat treatment of enzyme: no, 1 h
[13] = 55 °C, heat treatment of enzyme: no, 3 h
[14] = 55 °C, heat treatment of enzyme: no, 6 h
[15] = 55 °C, heat treatment of enzyme: yes, 6 h
[16] = 65 °C, heat treatment of enzyme: no, 0 h
[17] = 65 °C, heat treatment of enzyme: no, 1 h
[18] = 65 °C, heat treatment of enzyme: no, 3 h
[19] = 65 °C, heat treatment of enzyme: no, 6 h
[20] = 65 °C, heat treatment of enzyme: yes, 6 h
[21] = 80 °C, heat treatment of enzyme: no, 0 h
[22] = 80 °C, heat treatment of enzyme: no, 1 h
[23] = 80 °C, heat treatment of enzyme: no, 3 h
[24] = 80 °C, heat treatment of enzyme: no, 6 h
[25] = 80 °C, heat treatment of enzyme: yes, 6 h

SMILES: COc1cc2c(=O)c(-c3ccc(O)cc3)coc2cc1O[C@@H]1O[C@H](COC(C)=O)[C@@H](O)[C@H](O)[C@H]1O [acetylglycitin, 6″-O-acetylglycitin]
- Decomposition efficiency of glycitin family in defatted soybean (30° C., heat treatment of enzyme no, reaction time 0 h): not detected
- Decomposition efficiency of glycitin family in defatted soybean (30° C., heat treatment of enzyme no, reaction time 1 h): not detected
- Decomposition efficiency of glycitin family in defatted soybean (30° C., heat treatment of enzyme no, reaction time 3 h): not detected
- Decomposition efficiency of glycitin family in defatted soybean (30° C., heat treatment of enzyme no, reaction time 6 h): not detected
- Decomposition efficiency of glycitin family in defatted soybean (30° C., heat treatment of enzyme yes, reaction time 6 h): not detected
- Decomposition efficiency of glycitin family in concentrated soybean protein [1]: 36.0%
- Decomposition efficiency of glycitin family in roasted soy flour [1]: 38.7%
- Decomposition efficiency of glycitin family in soymilk [1]: not detected
- Decomposition efficiency of glycitin family in concentrated soybean protein [2]: 35.0%
- Decomposition efficiency of glycitin family in roasted soy flour [2]: 33.8%
- Decomposition efficiency of glycitin family in soymilk [2]: not detected
- Decomposition efficiency of glycitin family in concentrated soybean protein [3]: 33.4%
- Decomposition efficiency of glycitin family in roasted soy flour [3]: 33.2%
- Decomposition efficiency of glycitin family in soymilk [3]: not detected
- Decomposition efficiency of glycitin family in concentrated soybean protein [4]: 30.8%
- Decomposition efficiency of glycitin family in roasted soy flour [4]: 19.1%
- Decomposition efficiency of glycitin family in soymilk [4]: not detected
- Decomposition efficiency of glycitin family in concentrated soybean protein [5]: 35.4%
- Decomposition efficiency of glycitin family in roasted soy flour [5]: 37.5%
- Decomposition efficiency of glycitin family in soymilk [5]: not detected
- Decomposition efficiency of glycitin family in defatted soybean (45° C., heat treatment of enzyme no, reaction time 0 h): not detected
- Decomposition efficiency of glycitin family in defatted soybean (45° C., heat treatment of enzyme no, reaction time 1 h): not detected
- Decomposition efficiency of glycitin family in defatted soybean (45° C., heat treatment of enzyme no, reaction time 3 h): not detected
- Decomposition efficiency of glycitin family in defatted soybean (45° C., heat treatment of enzyme no, reaction time 6 h): not detected
- Decomposition efficiency of glycitin family in defatted soybean (45° C., heat treatment of enzyme yes, reaction time 6 h): not detected
- Decomposition efficiency of glycitin family in concentrated soybean protein [6]: 35.9%
- Decomposition efficiency of glycitin family in roasted soy flour [6]: 38.3%
- Decomposition efficiency of glycitin family in soymilk [6]: not detected
- Decomposition efficiency of glycitin family in concentrated soybean protein [7]: 34.1%
- Decomposition efficiency of glycitin family in roasted soy flour [7]: 27.4%
- Decomposition efficiency of glycitin family in soymilk [7]: not detected
- Decomposition efficiency of glycitin family in concentrated soybean protein [8]: 31.0%
- Decomposition efficiency of glycitin family in roasted soy flour [8]: 20.3%
- Decomposition efficiency of glycitin family in soymilk [8]: not detected
- Decomposition efficiency of glycitin family in concentrated soybean protein [9]: 27.1%
- Decomposition efficiency of glycitin family in roasted soy flour [9]: 9.1%
- Decomposition efficiency of glycitin family in soymilk [9]: not detected
- Decomposition efficiency of glycitin family in concentrated soybean protein [10]: 35.0%
- Decomposition efficiency of glycitin family in roasted soy flour [10]: 36.8%
- Decomposition efficiency of glycitin family in soymilk [10]: not detected
- Decomposition efficiency of glycitin family in defatted soybean (55° C., heat treatment of enzyme no, reaction time 0 h): not detected
- Decomposition efficiency of glycitin family in defatted soybean (55° C., heat treatment of enzyme no, reaction time 1 h): not detected
- Decomposition efficiency of glycitin family in defatted soybean (55° C., heat treatment of enzyme no, reaction time 3 h): not detected
- Decomposition efficiency of glycitin family in defatted soybean (55° C., heat treatment of enzyme no, reaction time 6 h): not detected
- Decomposition efficiency of glycitin family in defatted soybean (55° C., heat treatment of enzyme yes, reaction time 6 h): not detected
- Decomposition efficiency of glycitin family in concentrated soybean protein [11]: 36.0%
- Decomposition efficiency of glycitin family in roasted soy flour [11]: 39.1%
- Decomposition efficiency of glycitin family in soymilk [11]: not detected
- Decomposition efficiency of glycitin family in concentrated soybean protein [12]: 33.9%
- Decomposition efficiency of glycitin family in roasted soy flour [12]: 30.1%
- Decomposition efficiency of glycitin family in soymilk [12]: not detected
- Decomposition efficiency of glycitin family in concentrated soybean protein [13]: 29.8%
- Decomposition efficiency of glycitin family in roasted soy flour [13]: 12.1%
- Decomposition efficiency of glycitin family in soymilk [13]: not detected
- Decomposition efficiency of glycitin family in concentrated soybean protein [14]: 26.8%
- Decomposition efficiency of glycitin family in roasted soy flour [14]: 6.0%
- Decomposition efficiency of glycitin family in soymilk [14]: not detected
- Decomposition efficiency of glycitin family in concentrated soybean protein [15]: 35.3%
- Decomposition efficiency of glycitin family in roasted soy flour [15]: 37.3%
- Decomposition efficiency of glycitin family in soymilk [15]: not detected
- Decomposition efficiency of glycitin family in defatted soybean (65° C., heat treatment of enzyme no, reaction time 0 h): not detected
- Decomposition efficiency of glycitin family in defatted soybean (65° C., heat treatment of enzyme no, reaction time 1 h): not detected
- Decomposition efficiency of glycitin family in defatted soybean (65° C., heat treatment of enzyme no, reaction time 3 h): not detected
- Decomposition efficiency of glycitin family in defatted soybean (65° C., heat treatment of enzyme no, reaction time 6 h): not detected
- Decomposition efficiency of glycitin family in defatted soybean (65° C., heat treatment of enzyme yes, reaction time 6 h): not detected
- Decomposition efficiency of glycitin family in concentrated soybean protein [16]: 36.0%
- Decomposition efficiency of glycitin family in roasted soy flour [16]: 38.7%
- Decomposition efficiency of glycitin family in soymilk [16]: not detected
- Decomposition efficiency of glycitin family in concentrated soybean protein [17]: 35.7%
- Decomposition efficiency of glycitin family in roasted soy flour [17]: 34.5%
- Decomposition efficiency of glycitin family in soymilk [17]: not detected
- Decomposition efficiency of glycitin family in concentrated soybean protein [18]: 35.5%
- Decomposition efficiency of glycitin family in roasted soy flour [18]: 31.0%
- Decomposition efficiency of glycitin family in soymilk [18]: not detected
- Decomposition efficiency of glycitin family in concentrated soybean protein [19]: 35.8%
- Decomposition efficiency of glycitin family in roasted soy flour [19]: 29.0%
- Decomposition efficiency of glycitin family in soymilk [19]: not detected
- Decomposition efficiency of glycitin family in concentrated soybean protein [20]: 35.7%
- Decomposition efficiency of glycitin family in roasted soy flour [20]: 39.3%
- Decomposition efficiency of glycitin family in soymilk [20]: not detected
- Decomposition efficiency of glycitin family in defatted soybean (80° C., heat treatment of enzyme no, reaction time 0 h): not detected
- Decomposition efficiency of glycitin family in defatted soybean (80° C., heat treatment of enzyme no, reaction time 1 h): not detected
- Decomposition efficiency of glycitin family in defatted soybean (80° C., heat treatment of enzyme no, reaction time 3 h): not detected
- Decomposition efficiency of glycitin family in defatted soybean (80° C., heat treatment of enzyme no, reaction time 6 h): not detected
- Decomposition efficiency of glycitin family in defatted soybean (80° C., heat treatment of enzyme yes, reaction time 6 h): not detected
- Decomposition efficiency of glycitin family in concentrated soybean protein [21]: 35.9%
- Decomposition efficiency of glycitin family in roasted soy flour [21]: 38.3%
- Decomposition efficiency of glycitin family in soymilk [21]: not detected
- Decomposition efficiency of glycitin family in concentrated soybean protein [22]: 36.0%
- Decomposition efficiency of glycitin family in roasted soy flour [22]: 40.1%
- Decomposition efficiency of glycitin family in soymilk [22]: not detected
- Decomposition efficiency of glycitin family in concentrated soybean protein [23]: 35.7%
- Decomposition efficiency of glycitin family in roasted soy flour [23]: 38.4%
- Decomposition efficiency of glycitin family in soymilk [23]: not detected
- Decomposition efficiency of glycitin family in concentrated soybean protein [24]: 35.2%
- Decomposition efficiency of glycitin family in roasted soy flour [24]: 35.7%
- Decomposition efficiency of glycitin family in soymilk [24]: not detected
- Decomposition efficiency of glycitin family in concentrated soybean protein [25]: 34.8%
- Decomposition efficiency of glycitin family in roasted soy flour [25]: 39.4%
- Decomposition efficiency of glycitin family in soymilk [25]: not detected
